From publication PMC11204923, “Marine Cytotoxin Santacruzamate A Derivatives as Potent HDAC1-3 Inhibitors and Their Synergistic Anti-Leukemia Effects with Venetoclax” (Marine Drugs, 2024)

Columns and labels:
[1] = tested on: MV4-11, THP-1, HL60 and Kasumi-1 cells; experiment: Cell viability assay, four AML cell lines together; type: cell-based; conditions: 72 h; read-out: IC50 values against four AML cell lines (range)
Procedure: (§1) The AML cell lines MV4-11, THP-1, KASUMI-1 and HL-60 were purchased from Procell Life Science & Technology Co., Ltd. (Wuhan, China). THP-1 and KASUMI-1 were cultured in RPMI-1640 complete medium containing 10% fetal bovine serum and 1% penicillin and streptomycin. MV4-11 was cultured in IMDM complete medium containing 10% fetal bovine serum and 1% penicillin and streptomycin. HL-60 was cultured in IMDM complete medium containing 20% fetal bovine serum and 1% penicillin and streptomycin. All cell lines were cultured in an incubator with humidity set at 95%, temperature at 37 °C and 5% CO2.
(§2) MV4-11, THP-1, KASUMI-1 and HL-60 cells were plated in 96-well transparent plates (10,000 to 15,000 cells/100 μL) and after incubation overnight, cells were treated with gradient-diluted inhibitors with several concentrations. After the cells were incubated with inhibitors for 72 h, 1 mg/mL of Resazurin (Sigma-Aldrich, Saint Louis, MO, USA) was added (working concentration was 0.1 mg/mL). After incubation at 37 °C for about 3 h, the fluorescence intensity of […] was measured at 560 nm/590 nm (excitation/emission) with a Spectra Max i3 Microplate Reader, and the cell viability was determined. The IC50 curve was drawn using GraphPad Prism 9.5 software.

[2] = In vitro stability in rat plasma; type: in vitro ADME; conditions: 37 °C, within 24 h, degradation beginning after about 8 h
Procedure: (§3) Equal samples were collected, and 600 μL acetonitrile was added to quench enzyme reactions. The reaction mixture was swirled for 30 s and then centrifuged at 15,000 rpm at 4 °C for 15 min. The supernatant of each sample was analyzed directly by HPLC (1260 Infinity II, Agilent Technologies, Waldbronn, Germany).

[3] = In vitro stability in artificial intestinal juice; type: in vitro ADME; conditions: 37 °C, within 24 h, degradation beginning after about 8 h
Procedure: as §3

[4] = tested on: Kasumi-1 cells; experiment: Cell viability assay (resazurin), Kasumi-1; type: cell-based; conditions: Homo sapiens, Kasumi 1, 72 h; read-out: IC50 anti-proliferative activity Kasumi-1
Procedure: as §1, §2

[5] = target: T1, HDAC8 (Homo sapiens, UniProt Q9BY41); experiment: In vitro HDAC inhibition fluorescence assay, HDAC8; type: biochemical
T1 construct: purchased BPS Bioscience
T1 sequence (Q9BY41 1-377): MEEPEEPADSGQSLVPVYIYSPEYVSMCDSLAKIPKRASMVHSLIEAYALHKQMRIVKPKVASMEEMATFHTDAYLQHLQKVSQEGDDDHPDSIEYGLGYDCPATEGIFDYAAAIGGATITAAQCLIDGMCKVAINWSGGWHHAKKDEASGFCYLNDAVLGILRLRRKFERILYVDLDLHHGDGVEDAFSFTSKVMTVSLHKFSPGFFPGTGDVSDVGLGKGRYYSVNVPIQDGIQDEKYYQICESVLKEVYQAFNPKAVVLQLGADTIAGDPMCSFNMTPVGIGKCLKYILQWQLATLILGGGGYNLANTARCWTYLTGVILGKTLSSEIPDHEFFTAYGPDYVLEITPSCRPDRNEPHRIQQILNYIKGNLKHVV
Procedure: All of the HDAC enzymes were purchased from BPS Bioscience. In vitro HDAC inhibition assays were conducted as previously described. In brief, 20 μL of recombinant HDAC enzyme solution (HDAC1-9, 11) was mixed with various concentrations of the tested compound (20 μL). The mixture was incubated at 37 °C for 1 h, and then, 10 μL of fluorogenic substrate (Boc-Lys (acetyl)-AMC for HDAC1, 2, 3 and 6; Boc-Lys (trifluoroacetyl)AMC for HDAC4, 5, 7, 8, 9 and 11) was added to achieve a final concentration of 50 μM. After incubation at 37 °C for 2 h, the catalysis was stopped by the addition of 10 μL of developer containing 30 mg/mL trypsin and 6 μM trichostatin A (TSA). Then, 30 min later, the fluorescence intensity was measured using a microplate reader at excitation and emission wavelengths of 360 and 460 nm, respectively. The inhibition ratios were calculated from the fluorescence intensity readings of tested wells relative to those of control wells, and the IC50 curves and values were determined by GraphPad Prism 6.0, using the “log(inhibitor) vs. normalized response-variable slope” function.

[6] = tested on: MV4-11 cells; experiment: Cell viability assay (resazurin), MV4-11; type: cell-based; conditions: Homo sapiens, MV4-11, 72 h; read-out: IC50 anti-proliferative activity MV4-11
Procedure: as §1, §2

[7] = tested on: MV4-11 cells; experiment: Western blot analysis; type: cell-based; conditions: 24 h
Procedure: MV4-11 cells were inoculated into 12-well plates at a density of 800,000 cells/mL. After incubation overnight, each well was treated with different concentrations of 25c and Venetoclax alone or in combination. After treatment for 24 h, the cells were collected and washed with pre-cooled PBS. A protease inhibitor (cocktail) and RIPA buffer were added for cell lysis. The decomposed solution was centrifuged at 12,000 rpm for 15 min at 4 °C, and the extracted protein was located in the supernatant. The proteins in each sample were denatured by heating at 100 °C in loading buffer (5×) for 10 min. The same amount of proteins in each sample was separated by SDS-PAGE and then electrotransferred to a PVDF membrane (Merck Millipore, Billerica, MA, USA) and enclosed in 5% skim milk powder for 1 h. The primary antibody diluted with an immune response booster solution was incubated in a shaking bed at 4 °C overnight, and the horseradish (HRP)-conjugated second antibody diluted with 5% skim milk powder was incubated at room temperature for 1 h on the second day. After the PVDF membrane was washed with TBST, the target protein bands could be detected with chemiluminescent reagents (Millipore, Billerica, MA, USA) and visualized in the Tanon 5200 + fluorescence imager.
The primary antibodies Caspase 3 (including Cleaved Caspase-3) (sc-56053), Mcl-1 (94296S), Bcl-xL (ab98143), γ-H2AX (9718S), AcHH3 (Lys27) (8173S), AcHH4 (sc-377520), HH3 (ab1791), Ac-tubulin (sc-23950), HDAC6 (sc-28386), α-tubulin (sc-23948), GAPDH (sc-59540) and β-actin (8H10D10) were purchased from Abcam, Cell Signaling Technology and Santa Cruz Biotechnology.

[8] = tested on: THP-1 cells; experiment: Cell viability assay (resazurin), THP-1; type: cell-based; conditions: Homo sapiens, THP-1, 72 h; read-out: IC50 anti-proliferative activity THP-1
Procedure: as §1, §2

[9] = In vitro stability in artificial gastric juice; type: in vitro ADME; conditions: 37 °C, within 24 h
Procedure: as §3

CCCNNC(=O)C=Cc1ccc(CNCCc2ccccc2)cc1 [Compound 25c, 3-(4-((Phenethylamino)methyl)phenyl)-N′-propylacrylohydrazide]
IC50 [1]: 338 to 480 nM
degradation in rat plasma [2]: 35.60%
degradation in artificial intestinal juice [3]: 12.52%
IC50 [4]: 338 ± 125 nM
IC50 [5]: 4.11 ± 0.63 µM
IC50 [6]: 340 ± 117 nM
level of cleaved-caspase3 ([7]; 25c monotherapy, 30 nM and 90 nM): No substantial alterations
level of acetyl-tubulin [7]: increased
level of acetylated histone H3 (AcHH3) [7]: significantly elevated
level of acetylated histone H4 (AcHH4) [7]: significantly elevated
IC50 [8]: 392 ± 60.5 nM
stability in artificial gastric juice [9]: relatively stable
